{
  "source": "paper PMC6220203",
  "about": "“Cellular signaling and gene expression profiles evoked by a bivalent macrocyclic peptide that serves as an artificial MET receptor agonist” (Scientific Reports, 2018)",
  "system": "MET receptor / AKT in EHMES-1 cells",
  "experiment": "Western blot of MET and AKT phosphorylation with or without PHA665752",
  "format": "cell-based, human",
  "conditions": "PHA665752 100 nM, stimulated by 1 nM HGF or 120 nM aMD5-PEG11, 10 min",
  "experimental": "EHMES-1 cells were seeded at 9 × 10^5 cells per well in 6-well plates and cultured overnight. To treat the cells with the MET receptor tyrosine kinase inhibitor, EHMES-1 cells were seeded at 3 × 10^5 cells per well in 24-well plates and cultured with or without 100 nM PHA665752 for 12 h. After serum starvation for 4 h, cells were stimulated with HGF or dimeric macrocycle peptide. After washing with ice-cold PBS, cells were lysed in 200 μl 1 × SDS-PAGE Laemmli sample buffer and treated with ultrasonification (Vibra-cell). Cell lysates were analyzed by SDS-PAGE with a 7.5% polyacrylamide gel and electroblotted onto a PVDF membrane. The membrane was treated with primary antibodies (1:1000), followed by HRP-conjugated secondary antibodies (Dako) (1:2000). Chemiluminescence was visualized and quantitated using ImmunoStar LD (Wako). Original blots are provided by supplementary info.",
  "data": [
    {"compound": "Cc1[nH]c(/C=C2\\C(=O)Nc3ccc(S(=O)(=O)Cc4c(Cl)cccc4Cl)cc32)c(C)c1C(=O)N1CCC[C@@H]1CN1CCCC1", "note": "[PHA665752]", "values": [
      {"measurement": "inhibition of MET receptor and AKT activation", "value": "almost completely blocked the activation of the MET receptor and AKT to basal levels"}
    ]}
  ]
}
